For assay [1], the target named is T1, 5HT2B receptors (Homo sapiens, UniProt P41595).
T1 construct: expressed in transfected cells; host or cells: CHO-K1 cells
In words: Human 5-HT2B functional high throughput screening assay in CHO-K1 cells (calcium flux). The assay is classed as cell-based. As to conditions: for EC50: CHO-K1 cells, calcium flux; call rule not given here. Summed up:
(§1)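 Frozen CHO-K1 cells overexpressing the receptor were plated, serum-starved overnight, then loaded with Ca4 dye plus 2.5 mM probenecid for 60 min at room temperature. FLIPR fluorescence (ex 480/em 530 nm, 25 °C) after compound addition was normalized to serotonin; EC50 and Emax came from 4-parameter logistic fits.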
For orientation: Calcium assays in cells follow changes in intracellular calcium, usually with a dye or a luminescent sensor.

Assay [2] concerns the target T2, 5HT2C receptors (Homo sapiens, UniProt P28335).
T2 sequence (P28335 33-458): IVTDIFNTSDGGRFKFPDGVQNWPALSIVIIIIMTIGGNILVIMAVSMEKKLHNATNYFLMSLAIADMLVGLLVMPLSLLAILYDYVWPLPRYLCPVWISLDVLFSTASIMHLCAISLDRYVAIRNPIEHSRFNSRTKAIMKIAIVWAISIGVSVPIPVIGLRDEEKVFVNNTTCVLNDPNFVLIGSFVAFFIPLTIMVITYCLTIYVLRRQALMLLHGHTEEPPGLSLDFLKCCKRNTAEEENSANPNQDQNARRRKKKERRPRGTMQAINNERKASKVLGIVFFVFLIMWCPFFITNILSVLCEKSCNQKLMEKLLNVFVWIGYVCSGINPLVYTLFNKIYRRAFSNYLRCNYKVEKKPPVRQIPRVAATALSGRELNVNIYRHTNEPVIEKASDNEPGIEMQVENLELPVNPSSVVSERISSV
As to the kind of experiment: Human 5-HT2C functional high throughput screening assay in CHO-K1 cells (calcium flux). The assay is classed as cell-based. More on the design: expressed in transfected cells; host or cells: CHO-K1 cells. The note with it: for Emax: CHO-K1; for EC50: CHO-K1 cells, calcium flux. Summed up:
as §1

Where [3] appears, read: 5-HT2C, maximum functional response as percentage relative to the effect of serotonin.
[4] abbreviates: 5-HT2B agonist activity, read-out: EC50.
The mark [5] stands for this setting: CHO-K1, 5-HT2B, maximum functional response as percentage relative to the effect of serotonin, read-out: Emax.
Where [6] appears, read: 5-HT2C agonist activity, read-out: EC50.
Where [7] appears, read: 5-HT2C, maximum functional response as percentage relative to the effect of serotonin, read-out: Emax.
Setting [8] is: 5-HT2B, maximum functional response as percentage relative to the effect of serotonin.

Read-outs that look alike come from different tables or passages of the source.

T1 sequence (P41595 whole entry): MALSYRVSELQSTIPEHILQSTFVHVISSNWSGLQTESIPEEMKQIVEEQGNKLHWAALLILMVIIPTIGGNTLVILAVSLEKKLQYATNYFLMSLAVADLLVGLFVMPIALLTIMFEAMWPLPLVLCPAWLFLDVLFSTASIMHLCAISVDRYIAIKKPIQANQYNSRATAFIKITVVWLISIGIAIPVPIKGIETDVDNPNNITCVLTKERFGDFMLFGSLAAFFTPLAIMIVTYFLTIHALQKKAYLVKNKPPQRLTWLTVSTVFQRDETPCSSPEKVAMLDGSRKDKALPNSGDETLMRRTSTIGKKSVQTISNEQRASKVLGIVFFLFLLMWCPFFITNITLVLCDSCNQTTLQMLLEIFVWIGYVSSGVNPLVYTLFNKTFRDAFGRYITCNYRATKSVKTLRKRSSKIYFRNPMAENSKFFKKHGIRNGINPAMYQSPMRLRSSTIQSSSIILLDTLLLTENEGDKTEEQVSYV

Broadly, the Emax is the size of the effect at its maximum, as opposed to the concentration needed. As usually defined, the EC50 is the concentration needed to bring the measured effect to its halfway point. In the case of `O=S(=O)(c1ccc(Br)s1)N1Cc2cccnc2[C@@H]2CNC[C@H]2C1` (relative stereo) [Example 360, Trans-6-[(5-bromo-2-thienyl)sulfonyl]-5,6,7,7a,8,9,10,10a-octahydropyrido[3,2-c]pyrrolo[3,4-e]azepine], the Emax in assay [1] (CHO-K1) was 20%; in assay [2] (setting [3]), 80%. In addition, the EC50 was 300 nM in assay [1] (EC50, 5-HT2B agonist activity) and 10 nM in assay [2] (EC50, 5-HT2C agonist activity).

For `O=S(=O)(c1ccccc1F)N1Cc2cccnc2[C@@H]2CNC[C@H]2C1` (relative stereo) [Example 361, Trans-6-[(2-fluorophenyl)sulfonyl]-5,6,7,7a,8,9,10,10a-octahydropyrido[3,2-c]pyrrolo[3,4-e]azepine], the Emax in assay [1] (CHO-K1) and in assay [2] (setting [3]) was 80% in each case. The EC50 in assay [1] (EC50, 5-HT2B agonist activity) came to 300 nM; in assay [2] (EC50, 5-HT2C agonist activity), 100 nM.

Regarding `O=S(=O)(c1ccccc1Cl)N1Cc2cccnc2[C@@H]2CNC[C@H]2C1` (relative stereo) [Example 362, Trans-6-[(2-chlorophenyl)sulfonyl]-5,6,7,7a,8,9,10,10a-octahydropyrido[3,2-c]pyrrolo[3,4-e]azepine], the Emax was found to be 75% in assay [1] (CHO-K1) and 80% in assay [2] (setting [3]). In addition, the EC50 in assay [1] (EC50, 5-HT2B agonist activity) is 300 nM; in assay [2] (EC50, 5-HT2C agonist activity) it was 100 nM.

With `Cc1cc(C)c(S(=O)(=O)N2Cc3cccnc3[C@@H]3CNC[C@H]3C2)c(C)c1` (relative stereo) [Example 363, Trans-6-(mesitylsulfonyl)-5,6,7,7a,8,9,10,10a-octahydropyrido[3,2-c]pyrrolo[3,4-e]azepine], the values for the half-maximal effective concentration (EC50) in assay [1] (setting [4]) and in assay [2] (setting [6]) were 1000 nM and 200 nM, respectively. The results for the Emax in assay [1] (setting [5]) and in assay [2] (setting [7]) were 15% and 65%, respectively.

Take `O=S(=O)(c1ccccc1OC(F)(F)F)N1Cc2cccnc2[C@@H]2CNC[C@H]2C1` (relative stereo) [Example 364, Trans-6-{[2-(trifluoromethoxy)phenyl]sulfonyl}-5,6,7,7a,8,9,10,10a-octahydropyrido[3,2-c]pyrrolo[3,4-e]azepine]: the EC50 in assay [1] (setting [4]) is 90 nM; in assay [2] (setting [6]) it was 100 nM. Besides, the Emax in assay [1] (setting [5]) was 90%; in assay [2] (setting [7]), 85%.

In the case of `O=S(=O)(c1ccccc1C(F)(F)F)N1Cc2cccnc2[C@@H]2CNC[C@H]2C1` (relative stereo) [Example 365, Trans-6-{[2-(trifluoromethyl)phenyl]sulfonyl}-5,6,7,7a,8,9,10,10a-octahydropyrido[3,2-c]pyrrolo[3,4-e]azepine], the EC50 is 800 nM in assay [1] (setting [4]) and 500 nM in assay [2] (setting [6]). The Emax was determined as 30% in assay [1] (setting [5]) and 80% in assay [2] (setting [7]).

Consider `O=S(=O)(c1cccc(OC(F)(F)F)c1)N1Cc2cccnc2[C@@H]2CNC[C@H]2C1` (relative stereo) [Example 366, Trans-6-{[3-(trifluoromethoxy)phenyl]sulfonyl}-5,6,7,7a,8,9,10,10a-octahydropyrido[3,2-c]pyrrolo[3,4-e]azepine], for which the figures for the EC50 in assay [1] (setting [4]) and in assay [2] (setting [6]) were 200 nM and 100 nM, respectively. Also, the Emax in assay [1] (setting [5]) and in assay [2] (setting [7]) was 85% throughout.

On to `CC(O)c1cccc(-c2cccc3c2OCC[C@H]2CNC[C@H]32)c1` (relative stereo) [Example 367, 1-{3-[Trans-2,3,3a,4,5,10b-hexahydro-1H-[1]benzoxepino[4,5-c]pyrrol-7-yl]phenyl}ethanol], for which the EC50 is over 10000 nM in assay [1] (setting [4]) and 20 nM in assay [2] (setting [6]). In addition, the values for the Emax entry in assay [1] (setting [8]) and in assay [2] (setting [7]) were “inactive” and 90%, respectively.

Turning to `c1cncc(-c2cccc3c2OCC[C@H]2CNC[C@H]32)c1` (relative stereo) [Example 368, Trans-7-(pyridin-3-yl)-2,3,3a,4,5,10b-hexahydro-1H-[1]benzoxepino[4,5-c]pyrrole], the Emax in assay [1] (CHO-K1) stood at 20%; in assay [2] (setting [3]) it was 90%. The EC50 in assay [1] (EC50, 5-HT2B agonist activity) came out at 1000 nM; in assay [2] (EC50, 5-HT2C agonist activity), 10 nM.

Turning to `c1cc(-c2ccncc2)c2c(c1)[C@H]1CNC[C@@H]1CCO2` (relative stereo) [Example 369, Trans-7-(pyridin-4-yl)-2,3,3a,4,5,10b-hexahydro-1H-[1]benzoxepino[4,5-c]pyrrole], the EC50 is over 10000 nM in assay [1] (setting [4]) and 300 nM in assay [2] (setting [6]). Further, the Emax entry is “inactive” in assay [1] (setting [8]) and 90% in assay [2] (setting [3]).

Consider `CN1C[C@@H]2CCOc3c(-c4cccnc4)cccc3[C@H]2C1` (relative stereo) [Example 370, Trans-2-methyl-7-(pyridin-3-yl)-2,3,3a,4,5,10b-hexahydro-1H-[1]benzoxepino[4,5-c]pyrrole], for which the values for the EC50 in assay [1] (setting [4]) and in assay [2] (setting [6]) were over 10000 nM and 400 nM, respectively. For the same molecule, the values for the Emax result in assay [1] (setting [8]) and in assay [2] (setting [3]) were “inactive” and 90%, respectively.

For `CNC(=O)c1ccc(-c2cccc3c2OCC[C@H]2CNC[C@H]32)cc1` (relative stereo) [Example 371, 4-[Trans-2,3,3a,4,5,10b-hexahydro-1H-[1]benzoxepino[4,5-c]pyrrol-7-yl]-N-methylbenzamide], the figures for the EC50 in assay [1] (setting [4]) and in assay [2] (setting [6]) were over 10000 nM and 600 nM, respectively. The Emax entry in assay [1] (setting [8]) is “inactive”; in assay [2] (setting [7]), 95%.

For the molecule `COc1cccc2c1OCC[C@H]1CNC[C@H]21` (relative stereo) [Example 372, Trans-7-methoxy-2,3,3a,4,5,10b-hexahydro-1H-[1]benzoxepino[4,5-c]pyrrole], the EC50 was determined as 200 nM in assay [1] (setting [4]) and 1000 nM in assay [2] (setting [6]). In addition, the Emax in assay [1] (CHO-K1) is 25%; in assay [2] (setting [3]) it was 70%.

As for `Cc1ccc2c(c1)OCC[C@H]1CNC[C@H]21` (relative stereo) [Example 373, Trans-8-methyl-2,3,3a,4,5,10b-hexahydro-1H-[1]benzoxepino[4,5-c]pyrrole], the Emax in assay [1] (CHO-K1) was 70%; in assay [2] (setting [3]), 100%. In addition, the EC50 stood at 50 nM in assay [1] (EC50, 5-HT2B agonist activity) and 6 nM in assay [2] (EC50, 5-HT2C agonist activity).

With `Oc1cccc2c1[C@H]1CNC[C@@H]1CCO2` (relative stereo) [Example 374, Trans-2,3,3a,4,5,10b-hexahydro-1H-[1]benzoxepino[4,5-c]pyrrol-10-ol], the Emax in assay [1] (CHO-K1) was 30%; in assay [2] (setting [3]) it was 90%. Moreover, the EC50 amounted to 700 nM in assay [1] (EC50, 5-HT2B agonist activity) and 80 nM in assay [2] (EC50, 5-HT2C agonist activity).

As for `CN1CC[C@@H]2CNC[C@H]2c2cccc(Cl)c21` (relative stereo) [Example 375, Trans-7-chloro-6-methyl-1,2,3,3a,4,5,6,10b-octahydropyrrolo[3,4-d][1]benzazepine], the Emax in assay [1] (CHO-K1) came to 95%; in assay [2] (setting [3]), 100%. Further, the EC50 stood at 10 nM in assay [1] (EC50, 5-HT2B agonist activity) and 0.3 nM in assay [2] (EC50, 5-HT2C agonist activity).

As to `Clc1cccc2c1OCC[C@H]1CNC[C@H]21` (relative stereo) [Example 376, Trans-7-chloro-2,3,3a,4,5,10b-hexahydro-1H-[1]benzoxepino[4,5-c]pyrrole], the Emax in assay [1] (CHO-K1) worked out at 70%; in assay [2] (setting [3]), 90%. The EC50 in assay [1] (EC50, 5-HT2B agonist activity) worked out at 200 nM; in assay [2] (EC50, 5-HT2C agonist activity) it was 0.2 nM.

Take `Brc1cccc2c1[C@H]1CNC[C@@H]1CCO2` (relative stereo) [Example 377, Trans-10-bromo-2,3,3a,4,5,10b-hexahydro-1H-[1]benzoxepino[4,5-c]pyrrole]: the Emax turned out to be 30% in assay [1] (CHO-K1) and 100% in assay [2] (setting [3]). The EC50 in assay [1] (EC50, 5-HT2B agonist activity) was determined as 30 nM; in assay [2] (EC50, 5-HT2C agonist activity), 200 nM.

In the case of `CC(C)c1cccc(-c2ccc3c(c2)C(=O)NC[C@@H]2CNC[C@@H]32)c1` (relative stereo) [Example 378, Trans-8-(3-isopropylphenyl)-2,3,3a,4,5,10b-hexahydropyrrolo[3,4-d][2]benzazepin-6(1H)-one], the EC50 in assay [1] (setting [4]) was over 10000 nM; in assay [2] (setting [6]) it was 0.4 nM. The Emax result in assay [1] (setting [8]) is “inactive”; in assay [2] (setting [7]), 105%.

On to `CC(C)c1cccc(-c2ccc3c(c2)C(=O)NC[C@@H]2CN(C)C[C@@H]32)c1` (relative stereo) [Example 379, Trans-8-(3-isopropylphenyl)-2-methyl-2,3,3a,4,5,10b-hexahydropyrrolo[3,4-d][2]benzazepin-6(1H)-one], for which the values for the EC50 in assay [1] (setting [4]) and in assay [2] (setting [6]) were over 10000 nM and 5 nM, respectively. In addition, the Emax entry in assay [1] (setting [8]) was “inactive”; in assay [2] (setting [7]) it was 100%.

In the case of `CC(C)COc1ccc2c(c1)C(=O)NC[C@@H]1CN(CCF)C[C@@H]21` (relative stereo) [Example 380, Trans-2-(2-fluoroethyl)-8-isobutoxy-2,3,3a,4,5,10b-hexahydropyrrolo[3,4-d][2]benzazepin-6(1H)-one], the Emax result was “inactive” in assay [1] and 75% in assay [2]. The EC50 in assay [1] (setting [4]) is over 10000 nM; in assay [2] (setting [6]), 300 nM.

(Values after patent US8846951B2 (AbbVie Inc., priority 2009, dated 2014).)
